Measurements published in PMC10913484, “Hydroxyhexylitaconic acids as potent IMP-type metallo-β-lactamase inhibitors for controlling carbapenem resistance in Enterobacterales” (Microbiology Spectrum, 2024).
Converted amounts (≈) assume the structure as drawn. Read-outs that look alike come from different tables or passages of the source.

What was measured:
[1] = system: K. pneumoniae AR0076 (VIM-1); test: Susceptibility test, clinical isolate; type: cell-based; conditions: Klebsiella pneumoniae
Method: (§1) Susceptibility testing, based on the microdilution method, was performed according to the guidelines of the Clinical and Laboratory Standards Institute ([36]).

[2] = system: K. oxytoca NUBL-827 (IMP-1); test: Susceptibility test, clinical isolate; type: cell-based; conditions: Klebsiella oxytoca
Method: as §1

[3] = system: K. pneumoniae NUBL-8 (IMP-1); test: Susceptibility test, clinical isolate; type: cell-based; conditions: Klebsiella pneumoniae
Method: as §1

[4] = system: E. coli 465 (IMP-1); test: Susceptibility test, clinical isolate; type: cell-based; conditions: Escherichia coli
Method: as §1

[5] = system: P. penneri E11-M475 (IMP-1); test: Susceptibility test, clinical isolate; type: cell-based; conditions: Proteus penneri
Method: as §1

[6] = system: K. pneumoniae MS5674 (NDM-1/VIM-1); test: Susceptibility test, clinical isolate; type: cell-based; conditions: Klebsiella pneumoniae
Method: as §1

[7] = system: E. coli NUBL-24 (IMP-1); test: Susceptibility test, clinical isolate; type: cell-based; conditions: Escherichia coli
Method: as §1

[8] = system: K. pneumoniae AR0034 (IMP-4); test: Susceptibility test, clinical isolate; type: cell-based; conditions: Klebsiella pneumoniae, K. pneumoniae AR0034 (IMP-4)
Method: as §1

[9] = system: E. coli 426 (IMP-1); test: Susceptibility test, clinical isolate; type: cell-based; conditions: Escherichia coli
Method: as §1

[10] = system: E. coli NUBL-22 (IMP-6); test: Susceptibility test, clinical isolate; type: cell-based; conditions: Escherichia coli
Method: as §1

[11] = system: K. pneumoniae NUBL-23 (IMP-6); test: Susceptibility test, clinical isolate; type: cell-based; conditions: Klebsiella pneumoniae
Method: as §1

[12] = system: E. cloacae NUBL-5 (IMP-1); test: Susceptibility test, clinical isolate; type: cell-based; conditions: Enterobacter cloacae
Method: as §1

[13] = target: T1, IMP-1 (Serratia marcescens, UniProt P52699); type: binding; conditions: DSF; control protein 52.5°C
T1 construct: made in house
Method: The DSF assay was performed using the Protein Thermal Shift Dye Kit (Thermo Fisher Scientific) and StepOnePlus Real-Time PCR Systems (Applied Biosystems) as follows: 2 µL of IMP-1 enzyme (100 µM), 1 µL of EDTA or HHIA solution (5 mM), 2.5 µL of diluted Protein Thermal Shift Dye (32×), 5 µL of Protein Thermal Shift buffer, and 9.5 µL of water were mixed in a test tube and incubated for 15 min at 4°C. Four replicates of each sample were performed. The fluorescence was monitored at 0.7°C increments from 4°C to 99°C. The relative fluorescence units were fitted with the Boltzmann equation using the TSA-CRAFT software to determine the melting point (Tm) ([47]).

[14] = system: E. coli DH5α pCL-SMB-1; test: Susceptibility test (microdilution), transformant; type: cell-based; conditions: E. coli DH5α pCL-SMB-1
Method: as §1

[15] = system: E. coli DH5α pBC-IMP-1; test: Susceptibility test (microdilution), transformant; type: cell-based; conditions: Escherichia coli, read-out: MPM MIC, +agent 100 μg/mL
Method: as §1

[16] = system: E. coli DH5α pBC-NDM-1; test: Susceptibility test (microdilution), transformant; type: cell-based; conditions: for MPM MIC: E. coli DH5α pBC-NDM-1
Method: as §1

[17] = +HHIA 6.25 µg/mL, read-out: IPM MIC
[18] = +HHIA 6.25 μg/mL, read-out: MPM MIC
[19] = +HHIA 25 µg/mL, read-out: IPM MIC
[20] = +HHIA 25 μg/mL, read-out: MPM MIC
[21] = +HHIA 100 µg/mL, read-out: IPM MIC
[22] = +HHIA 100 μg/mL, read-out: MPM MIC

T1 sequence (P52699 19-246, looked up, species assumed): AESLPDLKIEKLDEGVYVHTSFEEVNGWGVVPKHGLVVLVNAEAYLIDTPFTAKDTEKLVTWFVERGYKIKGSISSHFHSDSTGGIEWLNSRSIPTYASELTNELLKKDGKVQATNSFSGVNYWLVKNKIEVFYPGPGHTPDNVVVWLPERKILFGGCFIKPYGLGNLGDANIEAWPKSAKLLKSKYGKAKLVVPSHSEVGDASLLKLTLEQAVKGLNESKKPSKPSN

## C=C(C(=O)O)C(CCCCC(C)O)C(=O)O (stereo not shown) [9-HHIA, 9-hydroxyhexylitaconic acid]
[1]; [17]
  MIC: 32 µg/mL (≈ 139 µM)
[1]; [18]
  MIC: 32 µg/mL (≈ 139 µM)
[1]; [19]
  MIC: 32 µg/mL (≈ 139 µM)
[1]; [20]
  MIC: 32 µg/mL (≈ 139 µM)
[1]; [21]
  MIC: 32 µg/mL (≈ 139 µM)
[1]; [22]
  MIC: 32 µg/mL (≈ 139 µM)
[2]; [17]
  MIC: 8 µg/mL (≈ 34.7 µM)
[2]; [18]
  MIC: 32 µg/mL (≈ 139 µM)
[2]; [19]
  MIC: 4 µg/mL (≈ 17.4 µM)
[2]; [20]
  MIC: 16 µg/mL (≈ 69.5 µM)
[2]; [21]
  MIC: 2 µg/mL (≈ 8.69 µM)
[2]; [22]
  MIC: 4 µg/mL (≈ 17.4 µM)
[3]; [17]
  MIC: 2 µg/mL (≈ 8.69 µM)
[3]; [18]
  MIC: 16 µg/mL (≈ 69.5 µM)
[3]; [19]
  MIC: 4 µg/mL (≈ 17.4 µM)
[3]; [20]
  MIC: 4 µg/mL (≈ 17.4 µM)
[3]; [21]
  MIC: 1 µg/mL (≈ 4.34 µM)
[3]; [22]
  MIC: 0.5 µg/mL (≈ 2.17 µM)
[4]; [17]
  MIC: 16 µg/mL (≈ 69.5 µM)
[4]; [18]
  MIC: 32 µg/mL (≈ 139 µM)
[4]; [19]
  MIC: 8 µg/mL (≈ 34.7 µM)
[4]; [20]
  MIC: 8 µg/mL (≈ 34.7 µM)
[4]; [21]
  MIC: 2 µg/mL (≈ 8.69 µM)
[4]; [22]
  MIC: 0.5 µg/mL (≈ 2.17 µM)
[5]; [17]
  MIC: > 64 µg/mL
[5]; [18]
  MIC: > 64 µg/mL
[5]; [19]
  MIC: > 64 µg/mL
[5]; [20]
  MIC: > 64 µg/mL
[5]; [21]
  MIC: > 64 µg/mL
[5]; [22]
  MIC: 32 µg/mL (≈ 139 µM)
[6]; [17]
  MIC: 64 µg/mL (≈ 278 µM)
[6]; [18]
  MIC: > 64 µg/mL
[6]; [19]
  MIC: 32 µg/mL (≈ 139 µM)
[6]; [20]
  MIC: > 64 µg/mL
[6]; [21]
  MIC: 32 µg/mL (≈ 139 µM)
[6]; [22]
  MIC: 64 µg/mL (≈ 278 µM)
[7]; +HHIA 6.25 µg/mL, E. coli NUBL-24 (IMP-1), read-out: IPM MIC
  MIC: 4 µg/mL (≈ 17.4 µM)
[7]; +HHIA 6.25 μg/mL, E. coli NUBL-24 (IMP-1), read-out: MPM MIC
  MIC: 4 µg/mL (≈ 17.4 µM)
[7]; +HHIA 25 µg/mL, E. coli NUBL-24 (IMP-1), read-out: IPM MIC
  MIC: 2 µg/mL (≈ 8.69 µM)
[7]; +HHIA 25 μg/mL, E. coli NUBL-24 (IMP-1), read-out: MPM MIC
  MIC: 0.5 µg/mL (≈ 2.17 µM)
[7]; +HHIA 100 µg/mL, E. coli NUBL-24 (IMP-1), read-out: IPM MIC
  MIC: 1 µg/mL (≈ 4.34 µM)
[7]; read-out: MPM MIC
  MIC: 0.125 µg/mL (≈ 0.543 µM)
[8]; [17]
  MIC: 4 µg/mL (≈ 17.4 µM)
[8]; [18]
  MIC: 8 µg/mL (≈ 34.7 µM)
[8]; [19]
  MIC: 2 µg/mL (≈ 8.69 µM)
[8]; [20]
  MIC: 2 µg/mL (≈ 8.69 µM)
[8]; [21]
  MIC: 0.5 µg/mL (≈ 2.17 µM)
[8]; [22]
  MIC: 0.25 µg/mL (≈ 1.09 µM)
[9]; [17]
  MIC: 8 µg/mL (≈ 34.7 µM)
[9]; [18]
  MIC: 8 µg/mL (≈ 34.7 µM)
[9]; [19]
  MIC: 4 µg/mL (≈ 17.4 µM)
[9]; [20]
  MIC: 4 µg/mL (≈ 17.4 µM)
[9]; [21]
  MIC: 2 µg/mL (≈ 8.69 µM)
[9]; [22]
  MIC: 0.25 µg/mL (≈ 1.09 µM)
[10]; [17]
  MIC: 2 µg/mL (≈ 8.69 µM)
[10]; [18]
  MIC: 16 µg/mL (≈ 69.5 µM)
[10]; [19]
  MIC: 1 µg/mL (≈ 4.34 µM)
[10]; [20]
  MIC: 16 µg/mL (≈ 69.5 µM)
[10]; [21]
  MIC: 0.5 µg/mL (≈ 2.17 µM)
[10]; [22]
  MIC: 4 µg/mL (≈ 17.4 µM)
[11]; [17]
  MIC: 0.5 µg/mL (≈ 2.17 µM)
[11]; [18]
  MIC: 32 µg/mL (≈ 139 µM)
[11]; [19]
  MIC: 0.5 µg/mL (≈ 2.17 µM)
[11]; [20]
  MIC: 16 µg/mL (≈ 69.5 µM)
[11]; [21]
  MIC: 0.5 µg/mL (≈ 2.17 µM)
[11]; [22]
  MIC: 0.5 µg/mL (≈ 2.17 µM)
[12]; [17]
  MIC: 8 µg/mL (≈ 34.7 µM)
[12]; [18]
  MIC: 16 µg/mL (≈ 69.5 µM)
[12]; [19]
  MIC: 4 µg/mL (≈ 17.4 µM)
[12]; [20]
  MIC: 16 µg/mL (≈ 69.5 µM)
[12]; [21]
  MIC: 2 µg/mL (≈ 8.69 µM)
[12]; [22]
  MIC: 8 µg/mL (≈ 34.7 µM)
[13]
  Melting temperature (Tm) of treated IMP-1: 54.9 °C
[14]; +agent 25 μg/mL
  MPM MIC: 32 µg/mL
[14]; +agent 100 μg/mL
  MPM MIC: 32 µg/mL
[15]
  MIC: 0.125 µg/mL (≈ 0.543 µM)
[16]; +agent 25 μg/mL
  MPM MIC: 64 µg/mL
[16]; +agent 100 μg/mL
  MPM MIC: 64 µg/mL
[16]; Escherichia coli, read-out: MPM MIC
  MIC: 64 µg/mL (≈ 278 µM)
